The text below walks through data of patent publication US12064413B2, “Methods of treating melanoma with S-equol” (The Board of Regents of the University of Texas System, priority 2018, dated 2024).

“Also recorded” adds a separate entry of the source. Like-named read-outs stand apart in the source and are kept apart here.

Assay [1] has as its system B16 melanoma tumor cell line. Briefly: B16 melanoma tumor challenge in mice, S-equol and anti-PD-1 antibody alone or combined. The settings on record: for tumor volume: anti-PD-1 250 μg every 3 days i.p., S-equol 50 mg/kg per day oral gavage. It is filed as in vivo. As to the method: FIG. 4. A schema for combination therapy. Mice were administered one of: (1) vehicle+rat IgG2a; (2)S-equol+rat IgG2a; (3) vehicle+anti-PD-1 antibody; or (4)S-equol+anti-PD-1 antibody. Mice receiving anti-PD-1 antibody were given 250 μg every 3 days, intraperitoneally, and mice receiving S-equol were given 50 mg/kg per day by oral gavage. Treatment started 7 days after tumor challenge with B16 melanoma.
Melanoma cell line B16 was tested to determine the effects of a PD-1 inhibitor, S-equol and a combination of the two therapies on tumor growth. This experimental design includes four arms: (1) controls, (2) αPD-1, (3)S-cquol, and (4) αPD-1+S-equol (FIG. 4) by injecting into mice 5×10^5 cells subcutaneously. Antibodies were administered α-PD-1: 250 μg/mice by i.p. injection every 3 days and S-equol was administered at 50 mg/kg/day by oral gavage. Treatment began 7 day after tumor challenge. Tumor growth trajectories were compared within treated mice using a repeated measures linear mixed model. The primary outcome was the logarithm of the tumor size, and the test statistic is the treatment X time interaction. Tumors were measured about 10 times. The number of recipient mice use used in the studies (n=6 per group) was based on the above study.

Another assay deals with melanoma. Briefly: Pilot biomarker clinical study of Ki67 in melanoma subjects (Example 7). It is filed as in vivo, human. The following applies: oral S-equol 50 mg twice daily for 10-21 days; 20 subjects with melanoma. As to the method:
A pilot biomarker clinical study is performed in 20 subjects with documented melanoma to determine the effect of the ERβ agonist S-equol on Ki67 an indicator of tumor cell proliferation. Tumor cell proliferation is measured by immunohistological staining for Ki-67. Ki-67 is encoded by the gene MKI67 gene and is required to maintain individual mitotic chromosomes dispersed in the cytoplasm following nuclear envelope disassembly. Measuring the fraction of Ki-67-positive cells in a tumor is known to be a reliable parameter for assessing cancer patient prognosis. Subjects with TNBC are known to have very high levels of Ki67.
Patients enrolled in the study receive a history, physical, laboratory assessment, radiological imaging, and diagnostic biopsies. Immunohistochemistry (IHC) of Ki67 (proliferation marker), total ERβ, and pY36-ERβ (phosphorylated ERβ), B7H1 (also known as PDL-1) and MIA and S100B are conducted using core needle biopsy tissue samples prior to treatment. Patients are given oral S-equol 50 mg, twice daily for approximately two weeks (10-21 days) prior to the scheduled oncologic surgeries or start of primary systemic therapy. […]
A standard procedure for acquiring core biopsy is utilized for determining melanoma prior to enrollment. […] The tissue samples are sent for staining of total and pY36, ERβ and Ki67, and analyzed. […]

The next assay deals with cytochrome oxidase (COX). The settings on record: brains from ovariectomized mice; cited from earlier work.
For another assay, the system named is rat hippocampal neurons. The following applies: cited from earlier work.
The next assay relates to B16 cells. Description: B16 tumor growth in mice with daily subcutaneous S-equol (Example 6). It is filed as in vivo. The following applies: S-equol 20 or 60 mg/kg per day s.c. vs PBS vehicle; start at tumor mass 50 to 80 mm^3. As to the method:
Further work in a preclinical animal model supports the notion of using S-cquol to treat melanoma. In immunocompromised mouse experiments, using B16, a murine tumor cell line know to be useful to study human melanoma metastasis and solid tumor formation, growth of tumors is suppressed with S-equol treatment compared to control. 0.5×10^6 B16 cells are injected into normal BL mice. When the tumor masses reach 50 to 80 mm^3 (about one week after the inoculation), the mice are given daily subcutaneous injections of S-equol (20 or 60 mg/kg per day) or PBS as a vehicle control. Tumor development is followed by caliper measurements along two orthogonal axes: length (L) and width (W) and volume (V) is estimated by the formula V=[L×(W^2)]/2. Tumors harvested from mice are fixed in 10% neutral-buffered formalin, dehydrated, embedded in paraffin, and sectioned at 3 μm thickness. Representative tumor sections from vehicle control and S-equol-treated mice are tested for Ki-67 expression to assess cell proliferation, and for ERβ pY36. Statistical significance in the experiments is assessed by two-tailed Student's t test. In all assays, p<0.05 is considered statistically significant.

Assay [2] concerns triple negative breast cancer (TNBC). The settings on record: cited from earlier work.

Consider `Oc1ccc([C@H]2COc3cc(O)ccc3C2)cc1` [S-equol], for which the “effect on anticancer immunotherapy” value in assay [1] (Example 4, FIGS. 6-9, n=6 per group) is listed as “boost anticancer immunotherapy”. The tumor volume entry in assay [1] (FIG. 6, over 12 days post-challenge) was “reduce tumor volume compared to control”; in assay [1] (FIG. 7, over 19 days post-challenge), “reduce tumor volume compared to control”; in assay [1] (FIG. 9A, over 16 days (title) / 12 days post-challenge) it was “reduce tumor volume compared to control”. Also, the tumor weight result in assay [1] (FIG. 8A, mice challenged with B16 melanoma) is “reduce tumor weight compared to control”. Further, in the assay on melanoma, the “Ki67 (tumor cell proliferation, IHC) pre- vs post-treatment” value is reported as “measurable decrease; also recorded: measurable decline”. Further, the COX1 protein levels result in the assay with cytochrome oxidase (COX) is “increase”. The “cytochrome oxidase (COX) activity” value in the assay with cytochrome oxidase (COX) is “increase”. The “respiratory and maximal glycolysis fluxes” value in the assay on rat hippocampal neurons was “increase”. For the same compound, the growth of tumors entry in the assay on B16 cells is “suppressed”.
As for atezolizumab, the response rate in assay [2] (21 evaluable, PD-L1 expressing TNBC tumors) is on record as 19%.
Take avelumab: the response rate in assay [2] (168 TNBC tumors unselected for PD-L1 expression) is 8.6%.
pembrolizumab: the response rate in assay [2] (Phase 1 study, 27 women with heavily pretreated, chemotherapy resistant, metastatic TNBC that expressed PD-L1) is given as 18.4%.
